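How tested: cells in 96-well plates exposed to compound for 48 hours at five concentrations. GI50 marks 50% less growth. TGI: concentration producing complete growth inhibition.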
How the values were obtained:
Assay in all cases: NCI tumour cell line growth inhibition, 48 h
[1] = tested on: 786-0 renal
[2] = tested on: A498 renal
[3] = tested on: A549 NSCLC
[4] = tested on: ACHN renal
[5] = tested on: BT-549 breast
[6] = tested on: CAKI-1 renal
[7] = tested on: CCRF-CEM leukemia
[8] = tested on: COLO 205 colon
[9] = tested on: DU-145 prostate
[10] = tested on: EKVX NSCLC
[11] = tested on: HCC-2998 colon
[12] = tested on: HCT-116 colon
[13] = tested on: HCT-15 colon
[14] = tested on: HL-60(TB) leukemia
[15] = tested on: HOP-62 NSCLC
[16] = tested on: HOP-92 NSCLC
[17] = tested on: HS 578T breast
[18] = tested on: HT29 colon
[19] = tested on: IGROV1 ovarian
[20] = tested on: K-562 leukemia
[21] = tested on: KM12 colon
[22] = tested on: LOX IMVI melanoma
[23] = tested on: M14 melanoma
[24] = tested on: MALME-3M melanoma
[25] = tested on: MCF7 breast
[26] = tested on: MDA-MB-231 breast
[27] = tested on: MDA-MB-435
[28] = tested on: MOLT-4 leukemia
[29] = tested on: NCI-H226 lung
[30] = tested on: NCI-H23 lung
[31] = tested on: NCI-H460 lung
[32] = tested on: NCI-H522 lung
[33] = tested on: NCI/ADR-RES ovarian
[34] = tested on: OVCAR-3 ovarian
[35] = tested on: OVCAR-4 ovarian
[36] = tested on: OVCAR-5 ovarian
[37] = tested on: OVCAR-8 ovarian
[38] = tested on: PC-3 prostate
[39] = tested on: RPMI-8226 leukemia
[40] = tested on: RXF 393 renal
[41] = tested on: SF-268 CNS
[42] = tested on: SF-295 CNS
[43] = tested on: SF-539 CNS
[44] = tested on: SK-MEL-2 melanoma
[45] = tested on: SK-MEL-28 melanoma
[46] = tested on: SK-MEL-5 melanoma
[47] = tested on: SK-OV-3 ovarian
[48] = tested on: SN12C renal
[49] = tested on: SNB-19 CNS
[50] = tested on: SNB-75 CNS
[51] = tested on: SR leukemia
[52] = tested on: SW-620 colon
[53] = tested on: T-47D breast
[54] = tested on: TK-10 renal
[55] = tested on: U251 CNS
[56] = tested on: UACC-257 melanoma
[57] = tested on: UACC-62 melanoma
[58] = tested on: UO-31 renal

CSc1ccc(/C=C2\C=C(CC(=O)NCc3ccc(C(=O)c4ccccc4)cc3)c3cc(F)ccc32)cc1
GI50 [1]: 125 nM
TGI [1]: 2660 nM
GI50 [2]: 36.4 nM
TGI [2]: 902 nM
GI50 [3]: 137 nM
TGI [3]: 4800 nM
GI50 [4]: 261 nM
TGI [4]: 12300 nM
GI50 [5]: 1430 nM
TGI [5]: 21900 nM
GI50 [6]: 74.1 nM
TGI [6]: 8230 nM
GI50 [7]: 33.7 nM
TGI [7]: 38900 nM
GI50 [8]: 190 nM
TGI [8]: 431 nM
GI50 [9]: 40.1 nM
TGI [9]: 877 nM
GI50 [10]: 423 nM
TGI [10]: > 100000 nM
GI50 [11]: 54.4 nM
TGI [11]: 756 nM
GI50 [12]: 36.7 nM
TGI [12]: 2760 nM
GI50 [13]: 49.2 nM
TGI [13]: > 51300 nM
GI50 [14]: 40.9 nM
TGI [14]: 208 nM
GI50 [15]: 63.3 nM
TGI [15]: 3380 nM
GI50 [16]: 179 nM
TGI [16]: 6000 nM
GI50 [17]: 45.7 nM
TGI [17]: 13000 nM
GI50 [18]: 36.8 nM
TGI [18]: 2730 nM
GI50 [19]: 84.8 nM
TGI [19]: 17700 nM
GI50 [20]: 39.3 nM
TGI [20]: > 100000 nM
GI50 [21]: 33.5 nM
TGI [21]: 1480 nM
GI50 [22]: 69 nM
TGI [22]: 6470 nM
GI50 [23]: 44.9 nM
TGI [23]: 4160 nM
GI50 [24]: 215 nM
TGI [24]: 44700 nM
TGI [25]: 12200 nM
GI50 [26]: 64.3 nM
TGI [26]: 5300 nM
GI50 [27]: < 11.2 nM
TGI [27]: 51.5 nM
GI50 [28]: 150 nM
TGI [28]: > 36700 nM
GI50 [29]: 95.1 nM
TGI [29]: 903 nM
GI50 [30]: 36 nM
TGI [30]: 2890 nM
GI50 [31]: 37.7 nM
TGI [31]: 4390 nM
GI50 [32]: 28.7 nM
TGI [32]: 211 nM
GI50 [33]: 32.8 nM
TGI [33]: 187 nM
GI50 [34]: 24.5 nM
TGI [34]: 64.3 nM
GI50 [35]: 127 nM
TGI [35]: 20200 nM
GI50 [36]: 61.8 nM
TGI [36]: 24900 nM
GI50 [37]: 49.7 nM
TGI [37]: 8120 nM
GI50 [38]: 47.3 nM
TGI [38]: 13100 nM
GI50 [39]: 64.8 nM
TGI [39]: > 68300 nM
GI50 [40]: 30.7 nM
TGI [40]: 292 nM
GI50 [41]: 138 nM
TGI [41]: 15100 nM
GI50 [42]: 45.3 nM
TGI [42]: 6900 nM
GI50 [43]: 38.1 nM
TGI [43]: 1170 nM
GI50 [44]: 49 nM
TGI [44]: 7040 nM
GI50 [45]: 68.8 nM
TGI [45]: 19800 nM
GI50 [46]: 35 nM
TGI [46]: 365 nM
GI50 [47]: 39.9 nM
TGI [47]: 704 nM
GI50 [48]: 59 nM
TGI [48]: 23000 nM
GI50 [49]: 70.5 nM
TGI [49]: > 100000 nM
GI50 [50]: 43.3 nM
TGI [50]: 6250 nM
GI50 [51]: 30.6 nM
TGI [51]: 26200 nM
GI50 [52]: 43.1 nM
TGI [52]: > 100000 nM
GI50 [53]: 1990 nM
TGI [53]: 44000 nM
GI50 [54]: 329 nM
TGI [54]: 6930 nM
GI50 [55]: 37.9 nM
TGI [55]: 2330 nM
GI50 [56]: 572 nM
TGI [56]: > 100000 nM
GI50 [57]: 59.1 nM
TGI [57]: 10700 nM
GI50 [58]: 360 nM
TGI [58]: 13000 nM
